Assay results: US7410975B2, “Small molecule toll-like receptor (TLR) antagonists” (Coley Pharmaceutical Group, Inc., priority 2003, dated 2008)

The molecules below were run against T1, human TLR7 (hTLR7) (Homo sapiens, UniProt Q9NYK1) (assay: Antagonist screen, hTLR7-NFκB-293 cells, NF-κB-luciferase reporter, with EC50 of R848). Details: compound at 0.5, 5, 50 μg/ml; EC50 concentration of R848; 16 h; NF-κB-luciferase.
T1 construct: expressed in transfected cells
T1 sequence (Q9NYK1 27-1049): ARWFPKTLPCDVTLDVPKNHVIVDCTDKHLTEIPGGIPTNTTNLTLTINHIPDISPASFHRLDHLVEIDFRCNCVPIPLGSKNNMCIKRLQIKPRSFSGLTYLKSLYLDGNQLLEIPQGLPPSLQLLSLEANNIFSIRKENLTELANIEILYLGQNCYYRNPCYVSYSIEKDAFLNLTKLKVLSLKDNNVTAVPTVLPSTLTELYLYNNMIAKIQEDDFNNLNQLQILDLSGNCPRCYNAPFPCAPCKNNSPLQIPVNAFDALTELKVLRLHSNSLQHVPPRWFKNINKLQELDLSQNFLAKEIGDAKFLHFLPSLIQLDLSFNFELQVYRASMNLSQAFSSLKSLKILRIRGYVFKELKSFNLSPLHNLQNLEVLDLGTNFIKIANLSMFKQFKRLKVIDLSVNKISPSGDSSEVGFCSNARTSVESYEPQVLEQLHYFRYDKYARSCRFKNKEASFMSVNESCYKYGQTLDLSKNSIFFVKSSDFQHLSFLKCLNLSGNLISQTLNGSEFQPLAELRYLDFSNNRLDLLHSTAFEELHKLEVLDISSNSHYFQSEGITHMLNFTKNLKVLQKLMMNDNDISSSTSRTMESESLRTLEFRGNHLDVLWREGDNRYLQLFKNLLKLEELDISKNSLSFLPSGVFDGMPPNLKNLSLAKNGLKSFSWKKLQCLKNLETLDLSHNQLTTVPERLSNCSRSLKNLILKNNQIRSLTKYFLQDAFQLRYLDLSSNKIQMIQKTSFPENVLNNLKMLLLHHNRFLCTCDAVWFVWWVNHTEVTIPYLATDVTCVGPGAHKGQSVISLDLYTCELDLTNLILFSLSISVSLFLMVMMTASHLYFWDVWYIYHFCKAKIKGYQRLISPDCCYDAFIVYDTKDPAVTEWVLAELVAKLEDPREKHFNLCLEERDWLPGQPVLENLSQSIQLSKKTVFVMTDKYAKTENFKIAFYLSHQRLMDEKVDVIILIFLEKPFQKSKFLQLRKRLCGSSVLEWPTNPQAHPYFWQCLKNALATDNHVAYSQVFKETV
Type: cell-based
Description: The method is described in greater detail as follows. The cells for each individual cell clone (hTLR3-NFκB-293, hTLR7-NFκB-293, hTLR8-NFκB-293 and hTLR9-NFκB-293) were counted and seeded one day before the stimulation at 1.5×10^4 cells per well in 96-well cell culture plates. To become adherent the cells were incubated after seeding overnight at 37° C. in 5% CO2 humidified air.
The screen for each compound was performed at the same time for all of the receptors TLR3, TLR7, TLR8 and TLR9. Up to fifteen test compounds, each assayed in duplicate at each of three different final concentrations (0.5 μg/ml, 5 μg/ml, and 50 μg/ml), were used for 16 h cell stimulation on a single multiwell culture plate. A 4× final concentration master plate was created to prepare the different test compounds before they were added to the cells.
Controls were added as duplicates individually for each cell clone on the cell culture plate. Positive controls were used as follows (final concentrations): 50 μg/ml poly(I:C) for hTLR3-NFκB-293; 8 μM resiquimod (R848) for hTLR7-NFκB-293; 30 μM R848 for hTLR8-NFκB-293; and 2.5 μM CpG-ODN 2006 for hTLR9-NFκB-293. Media alone was used as negative control. After addition of controls and small molecules, the cell clones were additionally stimulated with the EC50 concentration of the appropriate receptor-specific ligand.
The mean value of wells H2 and H5 (each with cells and EC50 concentration of the appropriate receptor-specific ligand) divided by the mean of wells H3 and H6 (each with cells alone) yielded the baseline response (i.e., fold induction of luciferase activity) to EC50 concentration of the appropriate receptor-specific ligand.
After 16 h stimulation the supernatant was removed and the cells treated with lysis buffer and stored at −80° C. before measuring.
For each screen result a graphical documentation was performed.
The baseline result (measured with addition of the EC50 concentration of the receptor-specific ligand) for each cell culture plate was measured as described above. Antagonistic effects were measured by down regulation compared to the baseline. Antagonists were scored as follows: • 13: compounds for which there was clear down regulation at 0.5 μg/ml, 5 μg/ml, and 50 μg/ml; • 12: compounds for which there was clear down regulation at 5 μg/ml and 50 μg/ml; • 11: compounds for which there was clear down regulation only at 50 μg/ml; • —: compounds for which there was no clear down regulation even at 50 μg/ml. Agonists
Results were expressed as fold induction over baseline luciferase activity measured in the absence of R848. […] Additional screening was performed in like manner using additional small molecules selected from another library or specifically prepared for this purpose. Scoring is reported as above but as applied to TLR7.
`C=CCc1ccccc1OC1(c2ccccc2)OC(=O)c2ccccc21` (centres unmarked) [compound 957] was tested, and the “hTLR7 (inhibitory effect, antagonist score)” value was 11 (compounds for which there was clear down regulation only at 50 μg/ml).
With `COC(=O)c1ccc(C2CC(=O)Nc3c2ccc2ccccc32)cc1` (centres unmarked) [compound 965] the “hTLR7 (inhibitory effect, antagonist score)” value was 12 (compounds for which there was clear down regulation at 5 μg/ml and 50 μg/ml).
In the case of `O=C(O)c1ccc(C2(c3ccc(C(=O)O)cc3)OC(=O)c3ccccc32)cc1` [compound 970], the “hTLR7 (inhibitory effect, antagonist score)” value was “— (compounds for which there was no clear down regulation even at 50 μg/ml)”.
With `Cc1cc(OC(=O)C2C3CCCCC32)c(C(C)C)cc1C1(c2cc(C(C)C)c(OC(=O)C3C4CCCCC43)cc2C)OC(=O)c2ccccc21` (centres unmarked) [compound 974] the “hTLR7 (inhibitory effect, antagonist score)” value was 11 (compounds for which there was clear down regulation only at 50 μg/ml).
`CCN(CC)CCCN(CC(=O)C1c2ccc(Cl)cc2NC(=O)c2ccccc21)C(=O)c1ccccc1` (centres unmarked) [compound 1013] was tested, and the “hTLR7 (inhibitory effect, antagonist score)” value was “— (compounds for which there was no clear down regulation even at 50 μg/ml)”.
`O=C1c2ccccc2C(=O)c2c1ccc1c(=O)n(C3CCCCC3)[nH]c21` [compound 1015] was tested, and the “hTLR7 (inhibitory effect, antagonist score)” value was “— (compounds for which there was no clear down regulation even at 50 μg/ml)”.
With `CCOC(=O)c1cc([N+](=O)[O-])cc2c1-c1ccc([N+](=O)[O-])cc1C2=C(C#N)C#N` [compound 1039] the “hTLR7 (inhibitory effect, antagonist score)” value was 11 (compounds for which there was clear down regulation only at 50 μg/ml).
In the case of `O=C1c2ccccc2C(=O)c2c1ccc1c(=O)n(-c3ccccc3)[nH]c21` [compound 1042], the “hTLR7 (inhibitory effect, antagonist score)” value was 12 (compounds for which there was clear down regulation at 5 μg/ml and 50 μg/ml).
For `O=C(c1cccc2c1-c1ccccc1/C2=N\O)N1CCCCC1` [compound 1050], the “hTLR7 (inhibitory effect, antagonist score)” value was 12 (compounds for which there was clear down regulation at 5 μg/ml and 50 μg/ml).
For `NC(=O)c1cccc2c1-c1ccccc1C2` [compound 1132], the “hTLR7 (inhibitory effect, antagonist score)” value was 11 (compounds for which there was clear down regulation only at 50 μg/ml).
With `NC(=O)c1cc(N)c2c(c1N)C(=O)c1ccccc1C2=O` [compound 1158] the “hTLR7 (inhibitory effect, antagonist score)” value was “— (compounds for which there was no clear down regulation even at 50 μg/ml)”.
With `CC(=O)Oc1cc(C)c(C2(c3cc(C(C)C)c(OC(C)=O)cc3C)OC(=O)c3ccccc32)cc1C(C)C` [compound 1161] the “hTLR7 (inhibitory effect, antagonist score)” value was 12 (compounds for which there was clear down regulation at 5 μg/ml and 50 μg/ml).
`COC(=O)c1cccc(C(O)(c2ccccc2)c2ccccc2)c1S(=O)(=O)C(C)(C)C` [compound 1187] was tested, and the “hTLR7 (inhibitory effect, antagonist score)” value was 12 (compounds for which there was clear down regulation at 5 μg/ml and 50 μg/ml).
In the case of `CCOCCOC(=O)c1cc([N+](=O)[O-])cc2c1-c1c(cc([N+](=O)[O-])cc1[N+](=O)[O-])C2=C(C#N)C#N` [compound 1241], the “hTLR7 (inhibitory effect, antagonist score)” value was “— (compounds for which there was no clear down regulation even at 50 μg/ml)”.
For `CC1CCN(C(=O)c2cccc3c2-c2ccccc2C3=O)CC1` [compound 1243], the “hTLR7 (inhibitory effect, antagonist score)” value was 11 (compounds for which there was clear down regulation only at 50 μg/ml).
`Cc1cccc(C2(c3cccc(C)c3)OC(=O)c3ccccc32)c1` [compound 1308] was tested, and the “hTLR7 (inhibitory effect, antagonist score)” value was 12 (compounds for which there was clear down regulation at 5 μg/ml and 50 μg/ml).
For `COCCCNC(=O)c1ccc2c(c1N)C(=O)c1ccccc1C2=O` [compound 1337], the “hTLR7 (inhibitory effect, antagonist score)” value was 11 (compounds for which there was clear down regulation only at 50 μg/ml).
`O=C1Nc2ccccc2Oc2ccc([N+](=O)[O-])cc21` [compound 1352] was tested, and the “hTLR7 (inhibitory effect, antagonist score)” value was 13 (compounds for which there was clear down regulation at 0.5 μg/ml, 5 μg/ml, and 50 μg/ml).
For Flunarizinehydrochloride [compound 312], the “hTLR7 (inhibitory effect, antagonist score)” value was “— (compounds for which there was no clear down regulation even at 50 μg/ml)”.
With Maprotilinehydrochloride [compound 346] the “hTLR7 (inhibitory effect, antagonist score)” value was 11 (compounds for which there was clear down regulation only at 50 μg/ml).
Metixene hydrochloride [compound 491] was tested, and the “hTLR7 (inhibitory effect, antagonist score)” value was 11 (compounds for which there was clear down regulation only at 50 μg/ml).
With “Prochlorperazinedimaleate [compound 399]” the “hTLR7 (inhibitory effect, antagonist score)” value was 12 (compounds for which there was clear down regulation at 5 μg/ml and 50 μg/ml).
“Trifluoperazinedihydrochloride [compound 313]” was tested, and the “hTLR7 (inhibitory effect, antagonist score)” value was 11 (compounds for which there was clear down regulation only at 50 μg/ml).
